Data: PubChem BioAssay (NCI)
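Exposure lasted 48 hours, with cells grown in 96-well plates and compounds tested at five concentrations. Definition used: TGI = concentration required for complete inhibition of growth.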

How the values were obtained:
Experiment in all cases: inhibition of tumour cell growth, NCI panel, 48 h
[1] = tested on: A498 renal
[2] = tested on: RXF 393 renal
[3] = tested on: MCF7 breast
[4] = tested on: SK-MEL-2 melanoma
[5] = tested on: MDA-N
[6] = tested on: SN12C renal
[7] = tested on: K-562 leukemia
[8] = tested on: COLO 205 colon
[9] = tested on: U251 CNS
[10] = tested on: KM12 colon
[11] = tested on: HOP-62 NSCLC
[12] = tested on: SF-268 CNS
[13] = tested on: HT29 colon
[14] = tested on: OVCAR-8 ovarian
[15] = tested on: MOLT-4 leukemia
[16] = tested on: OVCAR-4 ovarian
[17] = tested on: HCT-15 colon
[18] = tested on: UACC-62 melanoma
[19] = tested on: IGROV1 ovarian
[20] = tested on: HCT-116 colon
[21] = tested on: SF-295 CNS
[22] = tested on: OVCAR-5 ovarian
[23] = tested on: SF-539 CNS
[24] = tested on: SK-MEL-5 melanoma
[25] = tested on: SNB-19 CNS
[26] = tested on: HL-60(TB) leukemia
[27] = tested on: SNB-75 CNS
[28] = tested on: SR leukemia
[29] = tested on: NCI/ADR-RES ovarian
[30] = tested on: SW-620 colon
[31] = tested on: ACHN renal
[32] = tested on: HS 578T breast
[33] = tested on: NCI-H522 lung
[34] = tested on: NCI-H23 lung
[35] = tested on: UO-31 renal
[36] = tested on: MDA-MB-231 breast
[37] = tested on: T-47D breast
[38] = tested on: UACC-257 melanoma
[39] = tested on: PC-3 prostate
[40] = tested on: HCC-2998 colon
[41] = tested on: SK-OV-3 ovarian
[42] = tested on: TK-10 renal
[43] = tested on: EKVX NSCLC
[44] = tested on: MDA-MB-435
[45] = tested on: CAKI-1 renal
[46] = tested on: RPMI-8226 leukemia
[47] = tested on: LOX IMVI melanoma
[48] = tested on: MALME-3M melanoma
[49] = tested on: CCRF-CEM leukemia
[50] = tested on: A549 NSCLC
[51] = tested on: BT-549 breast
[52] = tested on: DU-145 prostate
[53] = tested on: M14 melanoma
[54] = tested on: 786-0 renal
[55] = tested on: NCI-H226 lung
[56] = tested on: OVCAR-3 ovarian

Measured: TGI

CC(C#N)N(CCc1ccccc1)C(=O)c1ccccc1 (stereo unspecified)
> 100 µM: all assays above
